US7192979B2, “EP4 receptor selective agonist in the treatment of osteoporosis” (Pfizer Inc., priority 2000, dated 2007)

Key:
[1] = system: 293S cells transfected with EP2; assay: Kidney regeneration assay: induction of BMP-7 expression (Northern blot) in EP2 293S cells; format: cell-based, human; conditions: 10^-6M, RNA at 8, 16 and 24 hours, time dependent
Experimental: (§1) The role of a prostaglandin agonist in kidney regeneration is investigated by the ability of Prostaglandin E2 (PGE2) or a prostaglandin agonist to induce the expression of Bone Morphogenetic Protein 7 (BMP-7) in wild type 293S cells and in 293S cells transfected with EP2.
(§2) Methods: 293S and EP2 293S cells are grown in Dulbecco's Modified Egale medium (DMEM, Gibco, BRL; Gaithersburg, Md.). One day prior to treatment with PGE2 or a prostaglandin agonist, cells are plated at a density of 1.5×10^6 cells/10 cm dish. Generally about 16 to 24 hours later the cell monolayer is washed once with OptiMEM (Gibco, BRL; Gaithersburg, Md.) followed by the addition of 10 ml OptiMEM/dish in the presence and absense of vehicle (DMSO), PGE2 (10^−6M) or a prostaglandin agonist (10^−6M). Cells are harvested and RNA is extracted at 8, 16 and 24 hours. Northern blot analysis of total RNA ([…]) is carried out by probing the blots with ^32P-labeled BMP-7 probe. The blots are normalized for RNA loading by hybridization with ^32P-labeled 18s ribosomal RNA probe. […] Given the known role of BMP-7 in kidney regeneration and the ability of an prostaglandin agonist to induce BMP-7 expression in 293S kidney cells in a time and receptor specific manner indicates a role for prostaglandin agonist in kidney regeneration.

wild type 293S cells = assay: Kidney regeneration assay: induction of BMP-7 expression (Northern blot) in wild type 293S cells; format: cell-based, human; conditions: parental (wild type) 293S cell line; 10^-6M; 8, 16 and 24 hours
Experimental: as §1, §2

[2] = system: ovariectomized (OVX) rat model; conditions: model for postmenopausal osteoporosis, Ke et al., Bone 23:249-255, 1998; cited from earlier work

## CCCCC[C@H](O)/C=C/[C@H]1[C@H](O)CC(=O)[C@@H]1C/C=C\CCCC(=O)O [PGE2, prostaglandin E2]
[1]
  expression of Bone Morphogenetic Protein 7 (BMP-7): induce the expression of BMP-7
Wild type 293S cells
  expression of Bone Morphogenetic Protein 7 (BMP-7): generally not observed
[2]
  restoration of lost bone: can restore lost bone
